The IC50 is the point on the concentration scale where inhibition reaches its midpoint. Read a high IC50 as weaker potency in that assay.

This is an account of results in US20160038392A1, “COMPOSITIONS COMPRISING PAULOWNIN AND/OR PAULOWNIA EXTRACTS AND USES THEREOF” (Johnson & Johnson Consumer Inc., priority 2010, published 2016).

≈ marks a conversion by molar mass, not a printed value.

For series [1], the system named is MatTek's MelanoDerm skin epidermal equivalent tissues (MEL-300-B; NHEK and NHM). As to the kind of experiment: Skin Epidermal Equivalents Model as a Skin Lightening Test (ΔL). Type of series: cell-based, human. As to conditions: topical daily 8 days, measured day 9. The source says:
Skin epidermal equivalent tissues are available commercially from MatTek's MelanoDerm™ System and were used for the following tests. MatTek's MelanoDerm™ System consists of normal, human-derived epidermal keratinocytes (NHEK) and melanocytes (NHM) which have been cultured to form a multilayered, highly differentiated model of the human epidermis. Specifically, MEL-300-B tissues, each 9 mm in diameter were used in the following tests.
The test materials prepared in an appropriate vehicle and tested concentrations were applied topically to the skin model daily and the experiment lasted for 8 days. Measurement was taken on day 9.
The macroscopic and microscopic visual tissue darkening end points were measured by taking pictures with a digital camera. The Degree of Lightness for each tissue (L-Value) was measured using a spectrophotometer (Konica Minolta CM-2600d). The ΔL (degree of lightness as compared to control) for each test sample is calculated as per following formula:
ΔL=L-value of treated sample−L-value of control sample.

Series [2] has as its system skin epidermal tissues (MelanoDerm). As to the kind of experiment: Cell Viability Test (MTT) on skin epidermal tissues. The class given is cell-based, human. As to conditions: at tested concentrations; ≧30% reduction of cell viability = significant. The procedure: Cell Viability of the tissue during experiment was evaluated using the MTT assay described as follows. The MTT Tissue Viability Assay is a colorimetric assay system that measures the reduction of a yellow Methylthiazolyldiphenyl-tetrazolium bromide (MTT) into an insoluble purple product by the mitochondria of viable cells. The skin epidermal tissues used previously to determine degree of lightness for each test material and of untreated tissues were used to determine percent viable cells remaining at the end of the experiment. The skin epidermal tissues after degree of lightness test were incubated with MTT reagent for 3 h. After incubation extraction buffer is added to lyse the cells and allowed to continue overnight. Samples are read using a plate reader at a wavelength of 570 nm and compared against untreated control and expressed in % Cell Viability as of control. A reduction of ≧30% cell viability as of control consider as a significant indication of cell cytotoxicity caused by the test materials. The amount of purple color produced is directly proportional to the number of viable cells.
Cytotoxicity potential was determined by MTT assay for all extracts and calculated as % reduction of cell viability as compared to control, wherein >30% reduction of cell viability constitute significant cytotoxicity issues.

Series [3] concerns NF-κB promoter activity in H9c2 cells. Description: NF-κB Inhibition Assay (NF-κB promoter luciferase, TNFα stimulated). As to conditions: Rattus norvegicus. The class given is cell-based. The protocol:
The NF-κB promoter assay is conducted as follows: rat cardiac myoblasts H9c2 cells were purchased from ATCC (Manassas, Va.). Cultures were maintained in Dulbecco's modified Eagle's medium (DMEM, Invitrogen Life Technologies, Carlsbad, Calif.) supplemented with 10% fetal bovine serum, 100 units/ml penicillin, and 50 μg/ml streptomycin (Invitrogen life technologies, Carlsbad, Calif.). Typically, 1×10^4 cells grown in 96-well plates were transiently transfected with 0.45 μg total DNA per well using Lipofectamine 2000 (Invitrogen life technologies, Carlsbad, Calif.). In all transfections, a construct with the thymidine kinase promoter and the Renilla luciferase reporter gene (pRL-TK, Promega, Madison, Wis.) was included as an internal control in addition to the luciferase promoter. One day after transfection, cells were treated with the extracts at indicated concentrations and stimulated with 100 ng/mL of Tumor Necrosis Factor-a (TNFα, Sigma-Aldrich, St Louis, Mo.) for approximately 24 hours before they were lysed for luciferase assays, using Dual-Luciferase Reporter System from Promega (Madison, Wis.), following manufacturer's protocol. Briefly, the firefly luciferase activity was measured first (representing NF-κB promoter activity), followed by the renilla luciferase (internal control), using luminometer LMAX, from Molecular Devices (Sunnyvale, Calif.). […]

On to `OC12COC(c3ccc4c(c3)OCO4)C1COC2c1ccc2c(c1)OCO2` (centres unmarked) [Paulownin], for which the “Degree of Lightness (ΔL)” value is recorded as 0.69 in series [1] (Conc. 0.5%), 1.52 in series [1] (Conc. 1%) and 2.79 in series [1] (Conc. 2%). In series [2], the “Cytotoxicity potential by MTT assay” value was “did not show any significant cytotoxicity”. For the same molecule, the IC50 in series [3] was 148 mg/L (≈ 400 µM).
